The values below come from patent publication US20090111759A1, “Synergistic Combination of Glutamate-and Gaba-Gated Chloride Agonist Pesticide and at Least One Vitamin E, Niacin, or Derivatives Thereof” (priority 2006, published 2009).

Read-outs that look alike come from different tables or passages of the source.

For orientation: EC50 means the concentration needed to bring the measured effect to its halfway point.

Series [1] concerns Dysdercus cingulatus nymphs. Description: Topical application of Abamectin/tocopherol acetone solutions, LD50 (Example 5). The format is in vivo. To be noted: sum of Abamectin and tocopherol; mortality recorded 48 h after applying. The method, then:
A range of Abamectin solutions in acetone was prepared. Similarly, a range of tocopherol, all-rac alpha, solutions was prepared. Mixed solutions of Abamectin and tocopherol in acetone were prepared as well. Nymphs of Dysdercus cingulatus were treated topically with either an Abamectin acetone solution (2 μl), a tocopherol acetone solution (2 μl) or mixed solutions (2 μl). The Dysdercus cingulatus mortality was recorded 48 h after applying the products.
Log dose-mortality curves were constructed for the Abamectin and the tocopherol treatments. LD50 values based on the sum of Abamectin and tocopherol contents (ng active ingredient(s) per nymph) were calculated.
From the observed LD50 values for Abamectin and tocopherol expected LD50 values for the mixtures were calculated according to Wadley's formula.

For the next series, the system named is Spodoptera exiqua larvae. Description: Topical application of Emamectin-benzoate/tocopherol acetone solutions, LD50 (Example 9). The format is in vivo. As to conditions: topical 1 μl acetone solution; mortality recorded 48 h after applying. The method, then: A range of Emamectin-benzoate and tocopherol, all-rac alpha, solutions with varying concentrations of each compound in acetone was prepared. Mixed solutions of Emamectin-benzoate and tocopherol, all-rac alpha, were also prepared. Larvae of Spodoptera exiqua were treated topically with either an Emamectin-benzoate acetone solution (1 μl), a tocopherol acetone solution (1 μl) or a solution containing both of the two compounds in the ratios 1:1 and 1:3 (1 μl). Log dose-mortality curves were constructed for the Emamectin-benzoate solutions, the tocopherol solutions and the mixtures. […] A comparison was made between the actual observed LD50 and the expected value, based on the Wadley method as described previously.

The test system of series [2] is Dysdercus cingulatus nymphs. The format is in vivo. As to conditions: 2000 ng applied on each nymph; 24 h after applying. The method, then:
A range of Abamectin solutions in acetone was prepared. Similarly, a range of tocopherol, all-rac alpha, solutions in acetone was prepared. Abamectin solution (2 μl), tocopherol solution (2 μl) or both were applied topically on nymphs of Dysdercus cingulatus. Abamectin was applied dorsally while tocopherol was applied ventrally. […] The mortality of the nymphs was recorded 24 h after applying the solutions.

Series [3] deals with Dysdercus cingulatus nymphs. It is filed as in vivo. Here is the method:
Abamectin, Ivermectin and tocopherol solutions in acetone were prepared. Mixed solutions of either Abamectin or Ivermectin and tocopherol were also prepared. Nymphs of Dysdercus cingulatus were treated topically with Abamectin acetone solution (20,000 ng/nymph), Ivermectin acetone solution (20,000 ng/nymph), a tocopherol acetone solution (20,000 ng/nymph) or a solution containing Abamectin and tocopherol or Ivermectin and tocopherol in the ratio 1:3 (20,000 ng total/nymph). The solutions were applied dorsally on the nymphs.
The Dysdercus cingulatus mortality was followed over time and recorded. Log time-mortality curves were constructed for the Abamectin and Ivermectin solutions and for the mixtures with tocopherol. An LT50 value was calculated for each application.

In series [4] the test system is Dysdercus cingulatus nymphs. The format is in vivo. Here is the method: A range of Ivermectin solutions in acetone was prepared. Similarly, a range of tocopherol solutions was prepared. Mixed solutions of Ivermectin and tocopherol in acetone were prepared as well. Nymphs of Dysdercus cingulatus were treated topically with either an Ivermectin acetone solution (2 μl), a tocopherol acetone solution (2 μl) or mixed solutions (2 μl).
The mortality was recorded after 24 and 48 h. The results were evaluated by the Colby-method.
This is another data set of the same source.

Series [5] relates to nymphs of Dysdercus cingulatus. Description: Dorsal application of Abamectin and Vitamin E derivatives, mortality (Example 19). To be noted: combination of Abamectin and the Vitamin E derivative; 2 μl dorsally; Colby. The format is in vivo. Here is the method: Various solutions of Vitamin E derivatives, Abamectin and combinations of Vitamin E derivatives and Abamectin were applied dorsally on nymphs of Dysdercus cingulatus. On each Dysdercus cingulatus 2 μl test solution was applied. The mortality of the treatments was recorded. The mortality results were analysed according to Colby. The synergistic activity of Abamectin and various Vitamin E derivatives on Dysdercus cingulatus is illustrated in table 19.

Series [6] relates to houseflies. The series can be described thus: Dorsal application of Abamectin and Vitamin E derivatives, mortality (Example 18). It is filed as in vivo, housefly. As to conditions: combination of Abamectin and the Vitamin E derivative; 2 μl dorsally; Colby. Here is the method:
Various solutions of Vitamin E derivatives, Abamectin and combinations of Vitamin E derivatives and Abamectin were applied dorsally on houseflies. On each housefly 2 μl test solution was applied. The mortality of the treatments was recorded. The mortality results were analysed according to Colby. The synergistic activity of Abamectin and various Vitamin E derivatives on houseflies is illustrated in table 18.

Series [7] relates to houseflies. Description: Dorsal application of Abamectin and nicotinic acid derivatives, mortality (Example 21). The format is in vivo, housefly. To be noted: combination of Abamectin and the nicotinic acid derivative; 2 μl dorsally; Colby. Here is the method:
Various solutions of nicotinic acid derivatives, Abamectin and combinations of nicotinic acid derivatives and Abamectin were applied dorsally on houseflies. On each housefly 2 μl test solution was applied. The mortality of the treatments was recorded. The mortality results were analysed according to Colby.

Series [8] concerns Trichostrongylus colubriformis. The series can be described thus: Larvae feeding inhibition study (Example 23). As to conditions: mixtures: based on concentration of IVM or DOR; for LFI-50 T. col.: larvae feeding inhibition 50%; for LFI-96 T. col.: larvae feeding inhibition 96%; for LFI-99 T. col.: larvae feeding inhibition 99%. The source says: (§1) The calculations done according to Wadley and shown in Table 23 indicate that synergistic action of Ivermectin and tocopheryl acetate and Doramectin and tocopheryl acetate was pre-sent in the larvae feed inhibition study. The synergistic action of Ivermectin and tocepheryl acetate in the H. contortus experiment is of particular interest because the H. contortus iso-late used was Ivermectin resistant.

For a further series, the system named is Haemonchus contortus. The series can be described thus: Larvae feeding inhibition study (Example 23). To be noted: Ivermectin resistant isolate, mixtures: based on concentration of IVM or DOR; for LFI-50 H. con.: larvae feeding inhibition 50%; for LFI-96 H. con.: larvae feeding inhibition 96%; for LFI-99 H. con.: larvae feeding inhibition 99%.
Text: as §1

Series [9] concerns Teladorsagia (Ostertagia) circumcincta. The series can be described thus: Larvae feeding inhibition study (Example 23). As to conditions: mixtures: based on concentration of IVM or DOR; for LFI-50 T. cir.: larvae feeding inhibition 50%; for LFI-96 T. cir.: larvae feeding inhibition 96%; for LFI-99 T. cir.: larvae feeding inhibition 99%.
Text: as §1

For series [10], the system named is cat fleas (Ctenocephalides felis felis) larvae. The series can be described thus: In vitro contact test on flea larvae (Example 25). As to conditions: inactivation of the fleas; mixture: based on the concentration of Selamectin.
Series [11] has the same test system. Description: In vitro larvae test based on systemic activity (Example 25). To be noted: inactivation of the fleas; mixture: based on the concentration of Selamectin.
Series [12] deals with cat fleas (Ctenocephalides felis felis) adult. The series can be described thus: In vitro contact test on adult fleas (Example 25). To be noted: inactivation of the fleas; mixture: based on the concentration of Selamectin.
Series [13] relates to Onchocerca lienalis microfilariae. Description: Microfilariae mobility test (Example 26). To be noted: mobility of the microfilariae; read-out: EC50 value for Ivermectin.
For another series, the system named is Tetranychus urticae. The series can be described thus: Spray test of Spinosad and tocopheryl acetate on bean plants (Vicia faba), leaf protection (Example 13). The format is in vivo. To be noted: single active, leaf protection 7 days after mites placed, average of four evaluations. The source says:
Using the alternative method for determining synergism the effect of each mixture of Spinosad and tocopheryl acetate is compared with the effect of the same rate of each of the active ingredients used alone.

Where [14] appears, read: 30 ng applied per nymph, after 24 h.
[15] abbreviates: 30 ng applied per nymph, after 48 h.
Where [16] appears, read: 100 ng applied per nymph, after 24 h.
Setting [17] is: 100 ng applied per nymph, after 48 h.
[18] abbreviates: 300 ng applied per nymph, after 24 h.
The mark [19] stands for this setting: 300 ng applied per nymph, after 48 h.

As to `Cc1c(C)c2c(c(C)c1O)CCC(C)(CCCC(C)CCCC(C)CCCC(C)C)O2` (racemic) [tocopherol, tocopherol, all-rac alpha], the LD50obs in series [1] is listed as >20,000 ng tocopherol ng AI(s) per nymph; in the series on Spodoptera exiqua larvae it was >20000 ng AI(s)/larvae. Moreover, the “% Mortality for each ingredient” value in [2] is 0%. Further, in series [3] (20,000 ng tocopherol per nymph, 24 h test period), the “Mortality during the test period” value is “did not die”. Besides, the “Mortality (%) for each ingredient” value in series [4] (setting [14]), in series [4] (setting [15]), in series [4] (setting [16]), in [4] (setting [17]), in series [4] (setting [18]) and in [4] (setting [19]) was 0% throughout.
As to `Cc1c(C)c2c(c(C)c1O)CC[C@@](C)(CCC[C@H](C)CCC[C@H](C)CCCC(C)C)O2` [(+)alpha-tocopherol], the “R (obs mortality/exp mortality)” value turned out to be 1.1 in series [5] and 2.0 with houseflies [6].
On to `CC(=O)Oc1c(C)c(C)c2c(c1C)CC[C@@](C)(CCC[C@H](C)CCC[C@H](C)CCCC(C)C)O2` [(+)alpha-tocopheryl acetate], for which the “R (obs mortality/exp mortality)” value in series [5] was 1.2; in the series with houseflies [6], 1.9.
Turning to `Cc1c(C)c2c(c(C)c1OC(=O)c1cccnc1)CC[C@@](C)(CCC[C@H](C)CCC[C@H](C)CCCC(C)C)O2` [(+)alpha-tocopheryl nicotinate], the entries for the “R (obs mortality/exp mortality)” value (in series [5]; in the series on houseflies [6]; with houseflies [7]) were 1.2, 3.0 and 3.0, respectively.
With `Cc1c(C)c2c(c(C)c1OC(=O)CCC(=O)O)CC[C@@](C)(CCC[C@H](C)CCC[C@H](C)CCCC(C)C)O2` [(+)alpha-tocopheryl succinate], the “R (obs mortality/exp mortality)” value in series [5] is given as 1.3.
As to `Cc1cc(O)cc2c1O[C@](C)(CCC[C@H](C)CCC[C@H](C)CCCC(C)C)CC2` [(+)delta-tocopherol], in series [5], the “R (obs mortality/exp mortality)” value stood at 1.6.
For `CO[C@H]1C[C@H](O[C@H]2[C@H](C)O[C@@H](O[C@@H]3/C(C)=C/C[C@@H]4C[C@@H](C[C@]5(C=C[C@H](C)[C@@H](C6CCCCC6)O5)O4)OC(=O)[C@@H]4C=C(C)[C@@H](O)[C@H]5OC/C(=C\C=C\[C@@H]3C)[C@]54O)C[C@@H]2OC)O[C@@H](C)[C@@H]1O` [DOR, Doramectin], in series [8], the “LFI-50 T. col.” value is given as 2.57 ppb, the “LFI-96 T. col.” value was determined as 8.04 ppb and the “LFI-99 T. col.” value amounted to 12.22 ppb. Also, in the series with Haemonchus contortus, the “LFI-50 H. con.” value stood at 2.63 ppb, the “LFI-96 H. con.” value is 10.37 ppb and the “LFI-99 H. con.” value was determined as 16.30 ppb. In series [9], the “LFI-50 T. cir.” value is recorded as 6.12 ppb, the “LFI-96 T. cir.” value worked out at 13.14 ppb and the “LFI-99 T. cir.” value is recorded as 18.52 ppb.
As for `CCOC(=O)c1cccnc1` [Ethyl nicotinate], the “R (obs mortality/exp mortality)” value with houseflies [7] stood at 1.4.
Take `O=C(O)c1ccncc1` [Isonicotinic acid]: the “R (obs mortality/exp mortality)” value in the series on houseflies [7] is on record as over 2.
Regarding `COC(=O)c1cccnc1` [Methyl nicotinate], the “R (obs mortality/exp mortality)” value in the series on houseflies [7] was found to be 3.0.
Take `O=C(O)c1cccnc1` [Nicotinic acid]: the “R (obs mortality/exp mortality)” value with houseflies [7] is 1.4.
On to `CO[C@H]1C[C@H](O[C@@H]2/C(C)=C/C[C@@H]3C[C@@H](C[C@]4(CC[C@H](C)[C@@H](C5CCCCC5)O4)O3)OC(=O)[C@@H]3C=C(C)/C(=N/O)[C@H]4OC/C(=C\C=C\[C@@H]2C)[C@]43O)O[C@@H](C)[C@@H]1O` [Selamectin], for which the “ED50 Larvae contact” value in [10] was 31 ppm. Besides, in series [11], the “ED50 Larvae systemic” value is given as 1.5 ppm. In addition, in series [12], the “ED50 Adult contact” value was 24330 ppm.
Regarding `Cc1c(C)c2c(c(C)c1O)CCC(C)(C(=O)O)O2` (centres unmarked) [Trolox, 6-hydroxy-2,5,7,8-tetramethylchroman-2-carboxylic acid], the “R (obs mortality/exp mortality)” value in the series with houseflies [6] is given as 1.3.
With Emamectin-benzoate, the LD50obs in the series on Spodoptera exiqua larvae is given as 4.30 ng AI(s)/larvae.
The molecule Ivermectin had an LT50 in [3] (in total 20,000 ng/nymph applied dorsally, two replicates of ten nymphs) of 9.1 h. In addition, in [4] (setting [14]), the “Mortality (%) for each ingredient” value is 8%. The “Mortality (%) for each ingredient” value in series [4] (setting [15]) came out at 27%. Also, in series [4] (setting [16]), the “Mortality (%) for each ingredient” value amounted to 33%. Also, in series [4] (setting [17]), the “Mortality (%) for each ingredient” value was 65%. The “Mortality (%) for each ingredient” value in series [4] (setting [18]) was found to be 63%. In addition, in series [4] (setting [19]), the “Mortality (%) for each ingredient” value came to 86%. Moreover, in series [13], the EC50 amounted to 5.8 µM. In [8], the “LFI-50 T. col.” value was 2.01 ppb, the “LFI-96 T. col.” value is recorded as 8.63 ppb and the “LFI-99 T. col.” value turned out to be 10.81 ppb. For the same molecule, in the series with Haemonchus contortus, the “LFI-50 H. con.” value was determined as 6.10 ppb, the “LFI-96 H. con.” value is 32.12 ppb and the “LFI-99 H. con.” value worked out at 40.68 ppb. In series [9], the “LFI-50 T. cir.” value is reported as 6.37 ppb, the “LFI-96 T. cir.” value worked out at 12.59 ppb and the “LFI-99 T. cir.” value was 17.35 ppb.
Regarding Spinosad, the “% protection” value in the series on Tetranychus urticae (100 g/ha) and with Tetranychus urticae (300 g/ha) was 5% each time.
